# Laboratory results taken from article PMC13198932, “Pyrazolone-based ERO1 inhibitors in ERO1-driven triple-negative breast cancer and SEPN1-related myopathy: Structure–activity relationship and therapeutic potential” (Pharmacological research, 2025).
# Entries after “also recorded” stand apart in the source; their conditions may differ.
# Columns and labels:
# [1] = tested on: WT and SEPN1 KD C2C12 cells; assay: Super resolution microscopy (SIM) of ER volume and mitochondrial network; type: cell-based; conditions: for mitochondrial network (total branch length): SEPN1 KD cells; for ER volume: WT and SEPN1 KD cells
# Source text: Structured illumination microscopy (SIM) was done on a Nikon SIM system with a 100 × 1.49 objective. Briefly, randomly selected cells were imaged at laser excitation of 405 nm (nuclei), 561 nm (ER), and 640 nm (mitochondria) with a 3D-SIM acquisition protocol. SIM images were quantified with ImageJ. After background normalization, the ER signals was segmentated to calculate the volume of the ER expressed as fraction of the cell. The segmentated mitochondrial signal was followed by the skeletonize function of ImageJ to perform mitochondria network analysis. We then applied the Analyze Skeleton 2D/3D plugin of ImageJ to measure each cell total branch length, expressed as μm.
# [2] = biological target: T1, ERO1 in MDA-MB-231 breast cancer cells (Homo sapiens, UniProt Q96HE7); assay: ERO1 redox state by non-reducing immunoblot in MDA-MB-231 cells; type: cell-based
# T1 construct: Non-reducing Immunoblot of endogenous ERO1 in lysates of vehicle-treated MDAMB231; endogenous in cells; host or cells: MDA-MB-231
# T1 sequence (Q96HE7 24-468): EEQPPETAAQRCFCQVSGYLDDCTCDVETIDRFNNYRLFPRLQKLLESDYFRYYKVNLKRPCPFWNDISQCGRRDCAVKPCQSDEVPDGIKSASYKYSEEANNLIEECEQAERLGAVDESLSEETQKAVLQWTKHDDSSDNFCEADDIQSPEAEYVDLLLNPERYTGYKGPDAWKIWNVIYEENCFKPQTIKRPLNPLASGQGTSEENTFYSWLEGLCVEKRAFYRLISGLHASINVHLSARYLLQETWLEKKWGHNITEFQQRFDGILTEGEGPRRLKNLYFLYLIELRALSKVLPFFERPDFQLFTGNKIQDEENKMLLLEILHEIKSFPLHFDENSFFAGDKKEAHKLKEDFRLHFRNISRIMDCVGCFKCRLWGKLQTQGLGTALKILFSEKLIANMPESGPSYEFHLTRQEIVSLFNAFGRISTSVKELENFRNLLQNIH
# Experimental: MDAMB231 and E0771 cells were maintained in Dulbecco’s Modified Eagle’s Medium supplemented with 1 % fetal bovine serum and seeded at 70 % confluency in six-well plates one day prior to the experiment. Cells were treated with DTT (10 mM) and/or ERO1A inhibitors for 1–5 h. At the time of collection, phosphate-buffered saline containing 10 mM NEM was added, and cells were incubated on ice for 10 min in lysis buffer (50 mM Tris-HCl, pH 7.4; 150 mM NaCl; 1 % Triton X-100; 0.1 % SDS; 1 % sodium deoxycholate; protease inhibitors; and 10 mM NEM). Protein concentrations were determined using the BCA assay, and equal amounts of protein were separated by non-reducing SDS-PAGE followed by immunoblotting with a polyclonal antibody against ERO1A [33].
# MDAMB231 cells = assay: MTS assay of metabolic activity in MDAMB231 cells; type: cell-based, human; conditions: MDAMB231, dose-response, 24 h, 1 % FBS
# Experimental: Six thousand cells (MDAMB231 and E0771) per well were seeded in 96-well plates and cultured in medium containing 1 % FBS. Cells were treated with varying concentrations of compounds and, after 24 h, incubated with MTS [3-(4,5-dimethylthiazol-2-yl)-5-(3-carboxymethoxyphenyl)-2-(4 sulfophenyl)2Htetrazolium]and PMS (phenazine methosulfate), following the instructions of the CellTiter 96® Aqueous Non-Radioactive Cell Proliferation Assay (Promega). Measurements were performed using a TECAN Infinite M200 plate reader with […] at 490 nm.
# recombinant PDI = recombinant PDI (Homo sapiens, UniProt P07237); assay: PDI activity assay (insulin transhydrogenase / insulin turbidity assay); type: biochemical; conditions: 25 μM, 15 min incubation
# Chain of recombinant PDI (P07237 18-508, species assumed): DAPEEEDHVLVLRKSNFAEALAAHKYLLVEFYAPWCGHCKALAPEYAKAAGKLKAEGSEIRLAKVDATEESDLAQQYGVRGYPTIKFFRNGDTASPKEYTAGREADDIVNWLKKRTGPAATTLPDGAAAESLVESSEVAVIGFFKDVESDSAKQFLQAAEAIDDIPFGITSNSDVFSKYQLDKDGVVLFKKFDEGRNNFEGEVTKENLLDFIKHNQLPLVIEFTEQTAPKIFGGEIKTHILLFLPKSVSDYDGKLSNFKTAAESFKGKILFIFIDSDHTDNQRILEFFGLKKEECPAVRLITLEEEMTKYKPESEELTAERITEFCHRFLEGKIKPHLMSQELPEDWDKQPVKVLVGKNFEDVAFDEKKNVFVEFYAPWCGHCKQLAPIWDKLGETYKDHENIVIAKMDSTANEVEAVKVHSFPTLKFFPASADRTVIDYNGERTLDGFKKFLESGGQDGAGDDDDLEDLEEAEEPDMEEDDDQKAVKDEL
# Experimental: PDI activity was assessed using an insulin transhydrogenase assay. Bovine insulin (1 mg/mL) in sodium phosphate buffer, pH 7.0, containing 2 mM EDTA, was incubated with 1.4 μM recombinant PDI in the presence of vehicle (1 % DMSO) or various concentrations of isoquercetin (30 or 60 μM), EN460, I2, I26, or I29 (1, 5, or 25 μM) for 15 min. The turbidimetric assay of insulin disulfide reduction by PDI was initiated by adding 1 mM dithiothreitol, and the reaction was monitored at 650 nm for 80 min. PDI activity is presented as a percentage of the vehicle control.
"ERO1 reduction (redox state) ([2]; MDA-MB-231, 20 μM, Fig. Sup. 2A)","ERO1 reduction ([2]; MDA-MB-231, 20 μM, dose-response 1–20 μM, Fig. 4B)","concentration achieving complete ERO1 reduction ([2]; MDA-MB-231, dose-response 5–20 μM, Fig. Sup. 2B)",SMILES,mitochondrial network (total branch length) [1],ER volume [1],metabolic activity (MTS assay) (MDAMB231 cells),PDI activity (percentage of the vehicle control) (recombinant PDI),"ERO1 reduction compared with EN460 ([2]; MDAMB231, Fig. 4D)"
efficiently reduced ERO1,near-complete reduction of ERO1,15 µM,"O=C(O)c1cc(N2N=C(C(F)(F)F)/C(=C\c3ccc(-c4ccccc4)o3)C2=O)ccc1Cl [EN460, reference compound]",selectively improved the mitochondrial network,did not change substantially,significantly reduced metabolic activity,inhibited PDI activity,
,,,O=C1/C(=C/c2ccc(-c3ccccc3)o2)C(C(F)(F)F)=NN1c1ccccc1F [I29],selectively improved the mitochondrial network,did not change substantially,significantly reduced metabolic activity; also recorded: higher potency than EN460,inhibited PDI activity,reduced more efficiently ERO1
